Experiments:
P. aeruginosa = assay: Bacterial proliferation test, 96 well microplate (OD 450 nm, 24 h); assay type: cell-based; conditions: positive control = 100% proliferation
Method: (§1) The microbial strains used for the tests are the following bacteria: • P. aeruginosa • S. aureus The tests were conducted on microplates to evaluate the MIC (Minimum Inhibitory Concentration). […] Each well is inoculated with 50 μL of bacterial suspension to be tested in a Muller-Hinton (MH) broth+150 μL of diluted test product solution. […] Each specimen is tested in triplicate. The optical densities (OD) are read a first time at time 0 (T0) at 450 nm. The plates are then incubated for 24 h at 37° C. with agitation. At the end of incubation, the OD is measured again at 450 nm (T24). The proliferation percentage is calculated as follows: Proliferation=(DOT24−DOT0)/(DOT24Control+−DOT0Control+)

S. aureus = assay: as above; assay type: cell-based; conditions: positive control = 100% proliferation
Method: as §1

Compound | proliferation percentage of P aeruginosa (P. aeruginosa; formula at 1.5% (v/v)) | proliferation percentage of P aeruginosa (P. aeruginosa; formula at 3% (v/v)) | proliferation percentage of P aeruginosa (P. aeruginosa; formula at 6% (v/v)) | proliferation percentage of P aeruginosa (P. aeruginosa; formula at 9% (v/v)) | proliferation percentage of S. aureus (S. aureus; formula at 1.5% (v/v)) | proliferation percentage of S. aureus (S. aureus; formula at 3% (v/v)) | proliferation percentage of S. aureus (S. aureus; formula at 6% (v/v)) | proliferation percentage of S. aureus (S. aureus; formula at 9% (v/v))
O=C[C@H](O)[C@@H](O)[C@H](O)[C@H](O)CO [Formula 9, glucose] | 100% | 206% | 206% | 113% | 96% | 86% | 83% | 72%
glucose oxidase [Formula 8] | 96% | 96% | 91% | 86% | 81% | 72% | 54% | 46%

Reference: patent publication US20170072024A1, “ANTIMICROBIAL COMPOSITION COMPRISING A CARBOHYDRATE, GLUCOSE OXIDASE AND ZINC OXIDE” (MELIPHARM, priority 2014, published 2017)
